Source: the NIST ThermoML archive (doi:10.1016/j.jct.2019.03.007)

Test: molar heat capacity at constant pressure
Conditions: 101.33 kPa, Crystal 1, DSC

O=[N+]([O-])[O-].O=[N+]([O-])[O-].[Ca+2] [calcium nitrate]
Conditions | molar heat capacity at constant pressure [J/K/mol]
460.78 K | 169.24
461 K | 167.84
461.78 K | 169.39
462 K | 167.76
462.78 K | 169.54
463 K | 167.86
463.78 K | 169.69
464 K | 168.02
464.78 K | 169.84
465 K | 168.08
465.78 K | 169.99
466 K | 168.25
466.78 K | 170.14
467 K | 168.45
467.78 K | 170.28
468 K | 168.56
468.78 K | 170.43
469 K | 168.64
469.78 K | 170.57
470 K | 168.78
470.78 K | 170.71
471 K | 169.08
471.78 K | 170.84
472 K | 169
472.78 K | 170.98
473 K | 169.04
473.78 K | 171.11
474 K | 169.16
474.78 K | 171.24
475 K | 169.1
475.78 K | 171.37
476 K | 169.34
476.78 K | 171.5
477 K | 169.7
477.78 K | 171.63
478 K | 169.85
478.78 K | 171.76
479 K | 169.98
479.78 K | 171.88
480 K | 170.3
480.78 K | 172.01
481 K | 170.38
481.78 K | 172.14
482 K | 170.53
482.78 K | 172.27
483 K | 170.78
483.78 K | 172.4
484 K | 171.03
484.78 K | 172.53
485 K | 171.06
485.78 K | 172.66
486 K | 171.2
486.78 K | 172.79
487 K | 171.33
487.78 K | 172.92
488 K | 171.57
488.78 K | 173.05
489 K | 171.63
489.78 K | 173.19
490 K | 171.74
490.78 K | 173.32
491 K | 171.84
491.78 K | 173.45
492 K | 172.06
492.78 K | 173.58
493 K | 172.18
493.78 K | 173.7
494 K | 172.32
494.78 K | 173.83
495 K | 172.25
495.78 K | 173.96
496 K | 172.55
496.78 K | 174.08
497 K | 172.8
497.78 K | 174.21
498 K | 172.81
498.78 K | 174.34
499 K | 172.68
499.78 K | 174.47
500 K | 172.79
500.78 K | 174.6
501 K | 172.74
501.78 K | 174.72
502 K | 172.79
502.78 K | 174.85
503 K | 172.93
503.78 K | 174.98
504 K | 173.02
504.78 K | 175.1
505 K | 173.14
505.78 K | 175.23
506 K | 173.3
506.78 K | 175.35
507 K | 173.5
507.78 K | 175.47
508 K | 173.86
508.78 K | 175.6
509 K | 173.88
509.78 K | 175.72
510 K | 173.92
510.78 K | 175.84
511 K | 174.13
511.78 K | 175.96
512 K | 174.3
512.78 K | 176.08
513 K | 174.4
513.78 K | 176.2
514 K | 174.42
514.78 K | 176.32
515 K | 174.62
515.78 K | 176.44
516 K | 174.84
516.78 K | 176.57
517 K | 175.25
517.78 K | 176.69
518 K | 175.28
518.78 K | 176.81
519 K | 175.29
519.78 K | 176.93
520 K | 175.21
520.78 K | 177.05
521 K | 175.26
521.78 K | 177.17
522 K | 175.43
522.78 K | 177.29
523 K | 175.67
523.78 K | 177.42
524 K | 175.75
524.78 K | 177.54
525 K | 175.8
525.78 K | 177.66
526 K | 175.94
526.78 K | 177.78
527 K | 175.82
527.78 K | 177.91
528 K | 176.06
528.78 K | 178.03
529 K | 176.19
529.78 K | 178.15
530 K | 176.36
530.78 K | 178.27
531 K | 176.31
531.78 K | 178.39
532 K | 176.49
532.78 K | 178.51
533 K | 176.66
533.78 K | 178.64
534 K | 176.93
534.78 K | 178.76
535 K | 177.11
535.78 K | 178.88
536 K | 177.34
536.78 K | 179
537 K | 177.34
537.78 K | 179.12
538 K | 177.42
538.78 K | 179.24
539 K | 177.46
539.78 K | 179.36
540 K | 177.51
540.78 K | 179.48
541 K | 177.41
541.78 K | 179.6
542 K | 177.7
542.78 K | 179.71
543 K | 177.98
543.78 K | 179.83
544 K | 178.12
544.78 K | 179.95
545 K | 178.25
545.78 K | 180.07
546 K | 178.24
546.78 K | 180.18
547 K | 178.5
547.78 K | 180.3
548 K | 178.69
548.78 K | 180.41
549 K | 178.65
549.78 K | 180.52
550 K | 178.93
550.78 K | 180.64
551 K | 179.14
551.78 K | 180.75
552 K | 179.27
552.78 K | 180.86
553 K | 179.3
553.78 K | 180.97
554 K | 179.36
554.78 K | 181.08
555 K | 179.38
555.78 K | 181.19
556 K | 179.42
556.78 K | 181.3
557 K | 179.62
557.78 K | 181.42
558 K | 179.86
558.78 K | 181.53
559 K | 179.79
559.78 K | 181.64
560 K | 180.01
560.78 K | 181.75
561 K | 180.29
561.78 K | 181.86
562 K | 180.36
562.78 K | 181.98
563 K | 180.34
563.78 K | 182.09
564 K | 180.52
564.78 K | 182.2
565 K | 180.58
565.78 K | 182.32
566 K | 180.69
566.78 K | 182.43
567 K | 180.68
567.78 K | 182.55
568 K | 180.69
568.78 K | 182.66
569 K | 180.72
569.78 K | 182.78
570 K | 180.95
570.78 K | 182.89
571 K | 181.01
571.78 K | 183
572 K | 181.17
572.78 K | 183.12
573 K | 181.26
573.78 K | 183.23
574 K | 181.32
574.78 K | 183.35
575 K | 181.37
575.78 K | 183.47
576 K | 181.6
576.78 K | 183.59
577 K | 181.65
577.78 K | 183.7
578 K | 181.77
578.78 K | 183.82
579 K | 181.78
579.78 K | 183.94
580 K | 181.89
580.78 K | 184.05
581 K | 181.94
581.78 K | 184.16
582 K | 182.11
582.78 K | 184.27
583 K | 182.13
583.78 K | 184.38
584 K | 182.17
584.78 K | 184.49
585 K | 182.35
585.78 K | 184.59
586 K | 182.41
586.78 K | 184.69
587 K | 182.46
587.78 K | 184.79
588 K | 182.63
